From patent US8772500B2, “TRPV3 modulators” (AbbVie Inc., priority 2011, dated 2014)

Experiments:
[1] = molecular target: T1, human TRPV3 (Homo sapiens, UniProt Q8NET8); assay: In vitro antagonism of recombinant human TRPV3 activation (FLIPR Tetra calcium assay, 2-APB as agonist); assay type: cell-based; conditions: HEK293 cells stably expressing human TRPV3; 2-APB 80 μM; range class; read-out: IC50 (reported range)
T1 construct: expressed in transfected cells
T1 sequence (Q8NET8 1-790): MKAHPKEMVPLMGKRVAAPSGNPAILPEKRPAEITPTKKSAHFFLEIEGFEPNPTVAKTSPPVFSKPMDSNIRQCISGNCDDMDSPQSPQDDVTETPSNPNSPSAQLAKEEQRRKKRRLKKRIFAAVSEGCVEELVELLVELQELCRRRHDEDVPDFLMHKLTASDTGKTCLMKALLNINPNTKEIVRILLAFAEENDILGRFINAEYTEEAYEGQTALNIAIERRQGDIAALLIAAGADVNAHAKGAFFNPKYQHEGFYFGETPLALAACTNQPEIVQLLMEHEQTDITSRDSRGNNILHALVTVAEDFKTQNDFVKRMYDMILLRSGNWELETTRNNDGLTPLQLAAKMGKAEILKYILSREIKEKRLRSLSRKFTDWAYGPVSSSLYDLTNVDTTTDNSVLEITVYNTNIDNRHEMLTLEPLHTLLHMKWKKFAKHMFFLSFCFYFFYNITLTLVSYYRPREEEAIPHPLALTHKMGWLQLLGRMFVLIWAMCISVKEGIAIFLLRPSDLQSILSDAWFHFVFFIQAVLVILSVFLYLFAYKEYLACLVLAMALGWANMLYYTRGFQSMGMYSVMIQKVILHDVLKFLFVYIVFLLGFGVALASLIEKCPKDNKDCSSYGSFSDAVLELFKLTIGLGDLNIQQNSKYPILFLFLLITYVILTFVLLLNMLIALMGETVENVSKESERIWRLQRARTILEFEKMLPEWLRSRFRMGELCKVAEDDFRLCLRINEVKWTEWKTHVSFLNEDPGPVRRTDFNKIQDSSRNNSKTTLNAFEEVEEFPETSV
How it was run: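 HEK293 cells stably expressing human TRPV3, loaded with Calcium-4 dye for 90-120 min; compound added 3 min before 2-APB at 80 μM (its EC80). Fluorescence (max minus min) over 10 min expressed as % of maximal 2-APB response without antagonist; IC50 mostly averaged from n≧2 runs.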

[2] = In vitro human microsomal stability assay; assay type: in vitro ADME; conditions: human, 0.5 h, 0.5 μM, pH 7.4
How it was run: (§1)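 Compounds were incubated at 37 °C with Sprague-Dawley rat liver microsomes (rat assay) or human liver microsomes (human assay) to measure metabolic stability. NADPH was added, including to the time-zero samples.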

[3] = In vitro rat microsomal stability assay; assay type: in vitro ADME, rat (Sprague-Dawley); conditions: Sprague-Dawley, rat, 0.5 h, 0.5 μM, pH 7.4
How it was run: as §1

Structure (SMILES) | IC50 [1] [µM] | HUMAN MICROSOMAL STABILITY (% REMAINING AFTER 30 MINUTES) [2] [%] | RAT MICROSOMAL STABILITY (% REMAINING AFTER 30 MINUTES) [3] [%]
OC1CC(c2ccc(C(F)(F)F)cc2)([C@H](O)c2ccccn2)C1 (stereo partly drawn) [Example 166, 3-[(S)-hydroxy(pyridin-2-yl)methyl]-3-[4-(trifluoromethyl)phenyl]-cyclobutanol] | 5.1 to 20 | >85 | >85
OC(C1CCc2cccnc21)C1(c2ccc(Cl)c(Cl)c2)CCC1 (stereo not drawn) [Example 168, (syn)-[1-(3,4-dichlorophenyl)cyclobutyl][6,7-dihydro-5H-cyclopenta[b]-pyridin-7-yl]methanol] | 5.1 to 20 | 5.6 | <0.01
OC(C1CCCc2cccnc21)C1(c2ccc(OC(F)(F)F)cc2)CCC1 (stereo not drawn) [Example 177, (anti)-5,6,7,8-tetrahydroquinolin-8-yl{1-[4-(trifluoromethoxy)phenyl]-cyclobutyl}methanol] | 1.1 to 5 | 0.12 | <0.01
OC(C1CCCc2cccnc21)C1(c2cccc(C(F)(F)F)c2)CCC1 (stereo not drawn) [Example 179, (anti)-5,6,7,8-tetrahydroquinolin-8-yl{1-[3-(trifluoromethyl)phenyl]-cyclobutyl}methanol] | 1.1 to 5 | <0.01 | <0.01
OC1CC(c2ccc(C(F)(F)F)cc2)(C(O)c2ccccn2)C1 [Example 200, cis-3-[(S)-hydroxy(pyridin-2-yl)methyl]-3-[4-(trifluoromethyl)phenyl]-cyclobutanol] | 5.1 to 20 | >85 | >85
OC1CC(c2ccc(C(F)(F)F)cc2)(C(O)c2ccccn2)C1 [Example 201, trans-3-[(S)-hydroxy(pyridin-2-yl)methyl]-3-[4-(trifluoromethyl)phenyl]-cyclobutanol] | 5.1 to 20 | 73 | >85
NC1CCCC1C(O)C1(c2cccc(C(F)(F)F)c2)CCC1 (stereo not drawn) [Example 204, (2-aminocyclopentyl){1-[3-(trifluoromethyl)phenyl]cyclobutyl}methanol] | 1.1 to 5 | >85 | >85
NC1CCCC1C(O)C1(c2ccc(OC(F)(F)F)cc2)CCC1 (stereo not drawn) [Example 206, (2-aminocyclopentyl){1-[4-(trifluoromethoxy)phenyl]cyclobutyl}methanol] | 1.1 to 5 | 83 | 62
NC1CCCCC1C(O)C1(c2cccc(C(F)(F)F)c2)CCC1 (stereo not drawn) [Example 212, (2-aminocyclohexyl){1-[3-(trifluoromethyl)phenyl]cyclobutyl}methanol] | 1.1 to 5 | >85 | 3.9
NC1CCC1C(O)C1(c2cccc(C(F)(F)F)c2)CCC1 (stereo not drawn) [Example 213, (2-aminocyclobutyl){1-[3-(trifluoromethyl)phenyl]cyclobutyl}methanol] | 1.1 to 5 | >85 | 72
N[C@@H]1CCC[C@@H]1[C@@H](O)C1(c2ccc(Cl)c(Cl)c2)CCC1 [Example 216, (R)-[(1S,2R)-2-aminocyclopentyl][1-(3,4-dichlorophenyl)cyclobutyl]-methanol] | 1.1 to 5 | >85 | 41
N[C@H]1CCC[C@H]1[C@H](O)C1(c2ccc(Cl)c(Cl)c2)CCC1 [Example 217, (S)-[(1R,2S)-2-aminocyclopentyl][1-(3,4-dichlorophenyl)cyclobutyl]-methanol] | 1.1 to 5 | 73 | 68
N[C@@H]1CCC[C@@H]1[C@@H](O)C1(c2ccc(OC(F)(F)F)cc2)CCC1 [Example 221, (R)-[(1S,2R)-2-aminocyclopentyl]{1-[4-(trifluoromethoxy)phenyl]-cyclobutyl}methanol] | 1.1 to 5 | 83 | 56
N[C@@H]1CCC[C@H]1[C@@H](O)C1(c2ccc(OC(F)(F)F)cc2)CCC1 [Example 223, (R)-[(1R,2R)-2-aminocyclopentyl]{1-[4-(trifluoromethoxy)phenyl]-cyclobutyl}methanol] | 1.1 to 5 | >85 | 65

Results, then the compound that gave them:

IC50 [1] [µM] | HUMAN MICROSOMAL STABILITY (% REMAINING AFTER 30 MINUTES) [2] [%] | RAT MICROSOMAL STABILITY (% REMAINING AFTER 30 MINUTES) [3] [%] | Structure (SMILES)
5.1 to 20 | <0.01 | <0.01 | OC(C1CCCc2cccnc21)C1(c2ccc(F)c(F)c2)CCC1 (stereo not drawn) [Example 169, (anti)-[1-(3,4-difluorophenyl)cyclobutyl][5,6,7,8-tetrahydroquinolin-8-yl]-methanol]
1.1 to 5 | <0.01 | <0.01 | OC(C1CCCc2cccnc21)C1(c2ccc(Cl)c(Cl)c2)CCC1 (stereo not drawn) [Example 181, (anti)-[1-(3,4-dichlorophenyl)cyclobutyl][5,6,7,8-tetrahydroquinolin-8-yl]-methanol]
1.1 to 5 | <0.01 | <0.01 | OC(C1CCCc2cccnc21)C1(c2ccc(C(F)(F)F)cc2)CCC1 (stereo not drawn) [Example 183, (anti)-5,6,7,8-tetrahydroquinolin-8-yl{1-[4-(trifluoromethyl)phenyl]-cyclobutyl}methanol]
5.1 to 20 | 73 | <0.01 | OC(c1ccccn1)C1(c2ccc(OC(F)(F)F)cc2)CC2(C1)OCCO2 (stereo not drawn) [Example 202, pyridin-2-yl{2-[4-(trifluoromethoxy)phenyl]-5,8-dioxaspiro[3.4]oct-2-yl}-methanol]
5.1 to 20 | >85 | 74 | CC1(O)CC(c2ccc(OC(F)(F)F)cc2)(C(O)c2ccccn2)C1 [Example 203, trans-3-[(S)-hydroxy(pyridin-2-yl)methyl]-1-methyl-3-[4-(trifluoromethoxy)-phenyl]cyclobutanol]
1.1 to 5 | >85 | >85 | NC1CCCC1C(O)C1(c2ccc(C(F)(F)F)cc2)CCC1 (stereo not drawn) [Example 205, (2-aminocyclopentyl){1-[4-(trifluoromethyl)phenyl]cyclobutyl}methanol]
0.501 to 1 | >85 | 67 | N[C@@H]1CCC[C@H]1[C@@H](O)C1(c2ccc(Cl)c(Cl)c2)CCC1 [Example 220, (R)-[(1R,2R)-2-aminocyclopentyl][1-(3,4-dichlorophenyl)cyclobutyl]-methanol]
1.1 to 5 | >85 | 59 | N[C@H]1CCC[C@@H]1[C@H](O)C1(c2ccc(OC(F)(F)F)cc2)CCC1 [Example 222, (S)-[(1S,2S)-2-aminocyclopentyl]{1-[4-(trifluoromethoxy)phenyl]-cyclobutyl}methanol]
1.1 to 5 | >85 | 70 | N[C@@H]1CCC[C@H]1[C@@H](O)C1(c2ccc(Cl)cc2)CCC1 [Example 224, (R)-[(1R,2R)-2-aminocyclopentyl][1-(4-chlorophenyl)cyclobutyl]methanol]
1.1 to 5 | >85 | 34 | N[C@H]1CCC[C@@H]1[C@H](O)C1(c2ccc(Cl)cc2)CCC1 [Example 225, (S)-[(1S,2S)-2-aminocyclopentyl][1-(4-chlorophenyl)cyclobutyl]methanol]
0.501 to 1 | >85 | <0.01 | N[C@H]1CCC[C@H]1[C@@H](O)C1(c2ccccc2F)CCC1 [Example 226, (R)-[(1R,2S)-2-aminocyclopentyl][1-(2-fluorophenyl)cyclobutyl]methanol]
